Reference: patent US20070141276A1, “Novel 14 and 15 membered ring compounds” (priority 2003, published 2007)
Structures can show the parent of a compound that is named as a salt.

Legend:
Test in all cases: MIC, broth dilution method in microtitre
S. pyogenes 3565 = format: cell-based; settings: Streptococcus pyogenes
Description: (§1) Using a standard broth dilution method in microtitre, compounds were tested for antibacterial activity. The compounds in the above examples gave minimum inhibitory concentrations (MICs) less than 1 microgram per millilitre against erythromycin-sensitive and erythromycin-resistant strains of Streptococcus pneumoniae and Streptococcus pyogenes.
(§2) In addiffon, the MIC (μg/mL) of test compounds against various organisms was determined including:
(§3) S. aureus Smith ATCC 13709, S. pneumonlae SP030, S. pyogenes 3565, E. faecalis ATCC 29212, H. influenzae ATCC 49247, M. catarrhalis ATCC 23246.

S. pneumoniae SP030 = format: cell-based; settings: Streptococcus pneumoniae
Description: as §1, §2, §3

[1] = system: S. aureus Smith ATCC 13709; format: cell-based; settings: Staphylococcus aureus, ATCC13709
Description: as §1, §2, §3

E. faecalis ATCC 29212 = format: cell-based; settings: Enterococcus faecalis, ATCC29212
Description: as §1, §2, §3

H. influenzae ATCC 49247 = format: cell-based, Haemophilus influenzae
Description: as §1, §2, §3

[2] = system: M. catarrhalis ATCC 23246; format: cell-based, Moraxella catarrhalis
Description: as §1, §2, §3

[3] = system: erythromycin-resistant strains of Streptococcus pneumoniae; format: cell-based
Description: as §1

[4] = system: erythromycin-resistant strains of Streptococcus pyogenes; format: cell-based
Description: as §1

MIC (S. pyogenes 3565)	MIC (S. pneumoniae SP030)	MIC [1]	MIC (E. faecalis ATCC 29212)	MIC [3]	MIC [4]	Compound	MIC (H. influenzae ATCC 49247)	MIC [2]
≤ 1 µg/mL	≤ 1 µg/mL	≤ 1 µg/mL	≤ 1 µg/mL			CC[C@H]1OC(=O)[C@H](C)[C@@H](O[C@H]2C[C@@](C)(OC)[C@@H](OC(=O)NCCNCCOc3ccc4c(c3)c(=O)c(C(=O)O)cn4CC)[C@H](C)O2)[C@H](C)[C@@H](O[C@@H]2O[C@H](C)CC(N(C)C)[C@H]2O)[C@](C)(OC)C[C@@H](C)C(=O)[C@H](C)[C@@H](O)[C@]1(C)O (stereo partly drawn) [Example 3, 4″-O-{2-[2-(3-Carboxy-1-ethyl-4-oxo-1,4-dihydro-quinolin-6-yloxy)-ethylamino]-ethylcarbamoyl}-6-O-methyl-erythromycin A monoformate salt]		
						4″-O-3-[2-(3-Carboxy-7-chloro-1-cyclopropyl-4-oxo-1,4-dihydro-quinolin-6-yloxy)-ethoxy]-propylcarbamoyl}-azithromycin (A) and 4″-O-{3-[2-(3-Carboxy-1-cyclopropyl-4-oxo-1,4-dihydro-quinolin-6-yloxy)-ethoxy]-propylcarbamoyl)-azithromycin (B) [Example 1]	≤ 2 µg/mL	≤ 2 µg/mL
≤ 1 µg/mL	≤ 1 µg/mL	≤ 1 µg/mL	≤ 1 µg/mL	≤ 0.25 µg/mL	≤ 0.25 µg/mL	CC[C@H]1OC(=O)[C@H](C)[C@@H](O[C@H]2C[C@@](C)(OC)[C@@H](OC(=O)NCCCOCCOc3ccc4c(c3)c(=O)c(C(=O)O)cn4C3CC3)[C@H](C)O2)[C@H](C)[C@@H](O[C@@H]2O[C@H](C)C[C@H](N(C)C)[C@H]2O)[C@](C)(O)C[C@@H](C)CN(C)[C@H](C)[C@@H](O)[C@]1(C)O [Example 2]		
